± gives the expanded uncertainty stated by the source.
Experiment: activity coefficient (dimensionless); of the first substance listed, at infinite dilution; xn = mol fraction of the nth substance listed
Details: Liquid, Chromatography, x1 = 0

| Compound | activity coefficient (302.45 K) | activity coefficient (322.35 K) | activity coefficient (342.45 K) |
| --- | --- | --- | --- |
| CO [methanol] + CCCCCCCCCCCCCC[P+](CCCCCC)(CCCCCC)CCCCCC.O=S(=O)([N-]S(=O)(=O)C(F)(F)F)C(F)(F)F | 1.29 ± 0.08 | 0.98 ± 0.06 | 0.86 ± 0.06 |
| C[N+](=O)[O-] [nitromethane] + CCCCCCCCCCCCCC[P+](CCCCCC)(CCCCCC)CCCCCC.O=S(=O)([N-]S(=O)(=O)C(F)(F)F)C(F)(F)F | 0.77 ± 0.05 | 0.64 ± 0.04 | 0.58 ± 0.04 |
| CCCCCCCCCC [decane] + CCCCCCCCCCCCCC[P+](CCCCCC)(CCCCCC)CCCCCC.O=S(=O)([N-]S(=O)(=O)C(F)(F)F)C(F)(F)F | 1.97 ± 0.13 | 1.89 ± 0.13 | 1.84 ± 0.12 |
| CCC[N+](=O)[O-] [1-nitropropane] + CCCCCCCCCCCCCC[P+](CCCCCC)(CCCCCC)CCCCCC.O=S(=O)([N-]S(=O)(=O)C(F)(F)F)C(F)(F)F | 2.19 ± 0.15 | 1.62 ± 0.11 | 1.35 ± 0.09 |
| CCc1ccccc1 [ethylbenzene] + CCCCCCCCCCCCCC[P+](CCCCCC)(CCCCCC)CCCCCC.O=S(=O)([N-]S(=O)(=O)C(F)(F)F)C(F)(F)F | 0.54 ± 0.04 | 0.57 ± 0.04 | 0.59 ± 0.04 |
| ClC(Cl)(Cl)Cl [tetrachloromethane] + CCCCCCCCCCCCCC[P+](CCCCCC)(CCCCCC)CCCCCC.O=S(=O)([N-]S(=O)(=O)C(F)(F)F)C(F)(F)F | 0.55 ± 0.04 | 0.55 ± 0.04 | 0.55 ± 0.04 |
| CC#N [acetonitrile] + CCCCCCCCCCCCCC[P+](CCCCCC)(CCCCCC)CCCCCC.O=S(=O)([N-]S(=O)(=O)C(F)(F)F)C(F)(F)F | 0.56 ± 0.04 | 0.5 ± 0.04 | 0.46 ± 0.04 |
| CCCCO [butan-1-ol] + CCCCCCCCCCCCCC[P+](CCCCCC)(CCCCCC)CCCCCC.O=S(=O)([N-]S(=O)(=O)C(F)(F)F)C(F)(F)F | 1.62 ± 0.11 | 1.26 ± 0.08 | 1.04 ± 0.07 |
| c1ccsc1 [thiophene] + CCCCCCCCCCCCCC[P+](CCCCCC)(CCCCCC)CCCCCC.O=S(=O)([N-]S(=O)(=O)C(F)(F)F)C(F)(F)F | 0.42 ± 0.04 | 0.4 ± 0.03 | 0.38 ± 0.03 |
| C1COCCO1 [1,4-dioxane] + CCCCCCCCCCCCCC[P+](CCCCCC)(CCCCCC)CCCCCC.O=S(=O)([N-]S(=O)(=O)C(F)(F)F)C(F)(F)F | 0.51 ± 0.04 | 0.49 ± 0.04 | 0.48 ± 0.04 |
| CCC(C)CC [3-methylpentane] + CCCCCCCCCCCCCC[P+](CCCCCC)(CCCCCC)CCCCCC.O=S(=O)([N-]S(=O)(=O)C(F)(F)F)C(F)(F)F | 1.04 ± 0.07 | 0.98 ± 0.06 | 0.94 ± 0.06 |
| CCCCCCCC [octane] + CCCCCCCCCCCCCC[P+](CCCCCC)(CCCCCC)CCCCCC.O=S(=O)([N-]S(=O)(=O)C(F)(F)F)C(F)(F)F | 1.48 ± 0.1 | 1.42 ± 0.09 | 1.4 ± 0.1 |
| CCC=O [propanal] + CCCCCCCCCCCCCC[P+](CCCCCC)(CCCCCC)CCCCCC.O=S(=O)([N-]S(=O)(=O)C(F)(F)F)C(F)(F)F | 0.35 ± 0.03 | 0.33 ± 0.03 | 0.31 ± 0.03 |
| C=CCCCC [hex-1-ene] + CCCCCCCCCCCCCC[P+](CCCCCC)(CCCCCC)CCCCCC.O=S(=O)([N-]S(=O)(=O)C(F)(F)F)C(F)(F)F | 0.91 ± 0.06 | 0.87 ± 0.06 | 0.85 ± 0.05 |
| CCO [ethanol] + CCCCCCCCCCCCCC[P+](CCCCCC)(CCCCCC)CCCCCC.O=S(=O)([N-]S(=O)(=O)C(F)(F)F)C(F)(F)F | 1.56 ± 0.1 | 1.23 ± 0.08 | 1.01 ± 0.06 |
| CC1CCCC1 [methylcyclopentane] + CCCCCCCCCCCCCC[P+](CCCCCC)(CCCCCC)CCCCCC.O=S(=O)([N-]S(=O)(=O)C(F)(F)F)C(F)(F)F | 0.85 ± 0.05 | 0.8 ± 0.1 | 0.77 ± 0.05 |
| C#CCCCC [1-hexyne] + CCCCCCCCCCCCCC[P+](CCCCCC)(CCCCCC)CCCCCC.O=S(=O)([N-]S(=O)(=O)C(F)(F)F)C(F)(F)F | 0.7 ± 0.1 | 0.69 ± 0.05 | 0.67 ± 0.05 |
| CCCCCCC [heptane] + CCCCCCCCCCCCCC[P+](CCCCCC)(CCCCCC)CCCCCC.O=S(=O)([N-]S(=O)(=O)C(F)(F)F)C(F)(F)F | 1.27 ± 0.08 | 1.22 ± 0.08 | 1.19 ± 0.08 |
| CCC(C)=O [butanone] + CCCCCCCCCCCCCC[P+](CCCCCC)(CCCCCC)CCCCCC.O=S(=O)([N-]S(=O)(=O)C(F)(F)F)C(F)(F)F | 0.28 ± 0.03 | 0.27 ± 0.03 | 0.23 ± 0.03 |

Reference: the NIST ThermoML archive (doi:10.1021/je800754w)
